Assay results reported in patent US8669284B2, “Pharmaceutical composition comprising a bi-cyclic compound and method for stabilizing the bi-cyclic compound” (Sucampo AG, priority 2006, dated 2014).

How the values were obtained:
Assay type in all cases: physicochemical
[1] = Stability of compound 1 in vehicle solution, 55° C. storage, HPLC; details: for Concentration of compound 1 after 55° C. storage, day 10: 55° C. for 10 days; for Concentration of compound 1 after 55° C. storage, day 10 / Concentration of compound 1, day 0: percentage based on the theoretical amount; for Concentration of compound 1, day 0: before storage
Protocol: Compound 1 was dissolved in a vehicle shown in table 1 below to give 240 μg/g solution (sample). The precise concentration of Compound 1 in the solution was determined by means of HPLC (day 0). Then, the solution was put in a hard grass container and kept at 55° C. for 10 days, and then the precise concentration of the compound 1 in the solution was determined by means of HPLC (day 10).
The determination of the concentration of the compound in the sample was carried out as follows. About 0.2 g of the sample was mixed with exactly 2 ml of internal standard solution and then with a dissolving agent shown in Table 1 to give 5 mL of sample solution. About 12 mg of the reference standard compound 1 was weighted precisely and added with acetonitrile to give exactly 100 ml solution. Exactly 0.8 ml of the solution was obtained and added with exactly 4 ml of the internal standard solution, and then added with the dissolving agent to give 10 ml of standard solution.
The fluorescent labeling agent was added to the respective solution, stirred and stood at room temperature. Then, the respective solution in an amount that theoretically gives 3.6 ng of compound 1 was loaded on the column and analyzed under the condition as follows:
Column: 5 mm×25 cm stainless steel column packed with octadecylsilane treated silica gel for HPLC (5 μm)
Mobile phase: mixture of acetonitrile HPLC grade: methanol HPLC grade: ammonium acetate (0.05 mol/L)

[2] = Stability of compound 1 in medium chain fatty acid triglyceride kept with gelatin/glycerin piece at 40° C.; details: 60 μg/g in medium chain fatty acid triglyceride with gelatin piece (gelatin 100, glycerin 35 parts by weight), sealed container, 21 days, on the basis of theoretical amount
Protocol: One hundred (100) parts by weight of gelatin (Type A, high bloom, SKW Biosystems #195F) and 35 parts by weight of glycerin, a plasticizer, were mixed in water and dried to give gelatin piece whose water content was about 4%. Compound 1 was dissolved in medium chain fatty acid triglyceride (USP/NF grade) to give a liquid mixture comprising 60 μg/g of the compound. 0.5 g of the liquid mixture and 0.5 g of gelatin piece were put together in a sealed container and kept at 40° C. for 21 days. The concentration of compound 1 contained in the liquid mixture was determined in the same manner as Example 1. As a result, the amount of the compound 1 at day 21 was 97.0% on the basis of a theoretical amount (60 μg/g).

[3] = Stability of soft gelatin capsule of compound 1 at 40° C.; details: fill 240 μg/g in medium chain fatty acid triglyceride; for conc. (% of Initial) 40° C. 1 mo: 1 month; for conc. (% of Initial) 40° C. 2 mo: 2 months
Protocol: Glycerin in an amount shown in Table 3 was added in an appropriate amount of water, stirred and heated. Then, gelatin 100 parts by weight was added thereto to give gelatin solution. Compound 1 was dissolved in medium chain fatty acid triglyceride (USP/NF grade) to give a fill solution containing 240 μg/g of compound 1. The gelatin solution and the fill solution were loaded on capsule forming and filling machine to give capsule containing the fill solution, and dried to give soft gelatin capsule.
The capsule was put in a sealed container and kept at 40° C. for 2 months. The concentration of compound 1 in the fill solution contained in the capsule was determined after 1 and 2 months storage in the same manner as EXAMPLE 1.

[4] = vehicle glycerin, 240 μg/g solution
[5] = vehicle isopropyl palmitate, 240 μg/g solution
[6] = vehicle linolenic acid (comparative), 240 μg/g
[7] = vehicle oleic acid (comparative), 240 μg/g
[8] = vehicle polyethylene glycol 400, 240 μg/g solution
[9] = vehicle propylene glycol ester of fatty acid, 240 μg/g solution
[10] = vehicle propylene glycol, 240 μg/g solution
[11] = soft gelatin capsule shell gelatin 100, glycerin 45 parts by weight
[12] = soft gelatin capsule shell gelatin 100, glycerin 55 parts by weight

stability of compound 1 ([1]; admixing with a polyol and/or a fatty acid ester other than glyceride, versus comparative vehicles): significantly improved
Concentration of compound 1 after 55° C. storage, day 10 [1, 4]: 78.0%
Concentration of compound 1, day 0 [1, 4]: 92.0%
Concentration of compound 1 after 55° C. storage, day 10 ([1]; vehicle hydrogenated maltose starch syrup (comparative), 240 μg/g): 24.4%
Concentration of compound 1 after 55° C. storage, day 10 [1, 5]: 99.1%
Concentration of compound 1, day 0 [1, 5]: 98.9%
Concentration of compound 1 after 55° C. storage, day 10 [1, 6]: 33.1%
Concentration of compound 1, day 0 [1, 6]: 74.8%
Concentration of compound 1 after 55° C. storage, day 10 [1, 7]: 57.3%
Concentration of compound 1, day 0 [1, 7]: 101.7%
Concentration of compound 1 after 55° C. storage, day 10 [1, 8]: 90.1%
Concentration of compound 1, day 0 [1, 8]: 98.2%
Concentration of compound 1 after 55° C. storage, day 10 [1, 9]: 89.0%
Concentration of compound 1, day 0 [1, 9]: 99.9%
Concentration of compound 1 after 55° C. storage, day 10 [1, 10]: 88.6%
Concentration of compound 1, day 0 [1, 10]: 97.8%
Concentration of compound 1 after 55° C. storage, day 10 ([1]; vehicle sugar alcohol solution derived from corn starch (comparative), 240 μg/g): 26.3%
amount of the compound 1 at day 21 [2]: 97.0%
conc. (% of Initial) 40° C. 1 mo [3, 11]: 100.0%
conc. (% of Initial) 40° C. 2 mo [3, 11]: 98.7%
conc. (% of Initial) 40° C. 1 mo [3, 12]: 97.7%
conc. (% of Initial) 40° C. 2 mo [3, 12]: 94.0%
Structure (SMILES): CCCCC(F)(F)[C@@]1(O)CC[C@H]2[C@@H](CC(=O)[C@@H]2CCCCCCC(=O)O)O1 [Compound 1, 7-[(2R,4aR,5R,7aR)-2-(1,1-difluoropentyl)-2-hydroxy-6-oxooctahydrocyclopenta[b]pyran-5-yl]heptanoic acid]
